From patent publication US9809858B2, “O-glycan pathway ovarian cancer signature” (H. LEE MOFFITT CANCER CENTER AND RESEARCH INSTITUTE, INC., priority 2012, dated 2017)

How the values were obtained:
OV2008 OVCA cell line = assay: CellTiter-Blue cell viability assay, OV2008; type: cell-based; settings: Homo sapiens; OV2008 cells, 72 hours, growth/viability
Excerpt: (§1) OVCA cell lines were obtained from the American Type Culture Collection (Manassas, Va.; CAOV3, OV90, OVCAR3, SKOV3), from the European Collection of Cell Cultures (Salisbury, UK; A2780CP, A2780S), from Kyoto University (Kyoto, Japan; CHI, CHIcisR, M41, M41CSR, Tyknu, and TyknuCisR), or as kind gifts (A2008, C13, CAOV2, HeyA8, IGR-OV1, IMCC3, IMCC5, MCAS, OV2008, OVCA420, OVCA429, OVCA432, OVCA433, FUOV1, PEO1, PEO4, SK-OV-6, T8, TOV-112D, TOV-21-G, Dov13, BG1, Ovary1847, OVCAR10, OVCAR8, OVCAR5, OVCAR4, OVCAR2, SK-OV-4). Cell lines were maintained in RPMI 1640 medium (Invitrogen, Carlsbad, Calif.) supplemented with 10% fetal bovine serum (Fisher Scientific, Pittsburgh, Pa.), 1% sodium pyruvate, 1% penicillin/streptomycin (Cellgro, Manassas, Va.), and 1% nonessential amino acids (HyClone, Hudson, N.H.). Mycoplasma testing was performed every 6 months, in accordance with the manufacturer's protocol (Lonza, Rockland, Me.).
(§2) Drug activity was evaluated using a high-throughput CellTiter-Blue® cell viability assay. […] Fluorescence was read at 579-nm excitation/584-nm emission using a Synergy™ 4 microplate reader (Bio-Tek Instruments, Inc., Winooski, Vt.). IC50 values were determined using a sigmoidal equilibrium model fit (XLfit 5.2, ID Business Solutions Ltd.). […]

OVCA432 OVCA cell line = assay: CellTiter-Blue cell viability assay, OVCA432; type: cell-based; settings: Homo sapiens; OVCA432 cells, 72 hours, growth/viability
Excerpt: as §1, §2

FUOV1 OVCA cell line = assay: CellTiter-Blue cell viability assay, FUOV1; type: cell-based; settings: Homo sapiens; FUOV1 cells, 72 hours, growth/viability
Excerpt: as §1, §2

OVCA429 OVCA cell line = assay: CellTiter-Blue cell viability assay, OVCA429; type: cell-based; settings: Homo sapiens; OVCA429 cells, 72 hours, growth/viability
Excerpt: as §1, §2

OVCAR2 OVCA cell line = assay: CellTiter-Blue cell viability assay, OVCAR2; type: cell-based; settings: Homo sapiens; OVCAR2 cells, 72 hours, growth/viability
Excerpt: as §1, §2

Dov13 OVCA cell line = assay: CellTiter-Blue cell viability assay, Dov13; type: cell-based; settings: Homo sapiens; Dov13 cells, 72 hours, growth/viability
Excerpt: as §1, §2

IMCC5 OVCA cell line = assay: CellTiter-Blue cell viability assay, IMCC5; type: cell-based; settings: Homo sapiens; IMCC5 cells, 72 hours, growth/viability
Excerpt: as §1, §2

Ovary1847 OVCA cell line = assay: CellTiter-Blue cell viability assay, Ovary1847; type: cell-based; settings: Homo sapiens; Ovary1847 cells, 72 hours, growth/viability
Excerpt: as §1, §2

SK-OV-3 OVCA cell line = assay: CellTiter-Blue cell viability assay, SK-OV-3; type: cell-based; settings: Homo sapiens; SK-OV-3 cells, 72 hours, growth/viability
Excerpt: as §1, §2

CAOV3 OVCA cell line = assay: CellTiter-Blue cell viability assay, CAOV3; type: cell-based; settings: Homo sapiens, Caov-3; CAOV3 cells, 72 hours, growth/viability
Excerpt: as §1, §2

OVCA433 OVCA cell line = assay: CellTiter-Blue cell viability assay, OVCA433; type: cell-based; settings: Homo sapiens; OVCA433 cells, 72 hours, growth/viability
Excerpt: as §1, §2

PEO1 OVCA cell line = assay: CellTiter-Blue cell viability assay, PEO1; type: cell-based; settings: Homo sapiens; PEO1 cells, 72 hours, growth/viability
Excerpt: as §1, §2

PEO4 OVCA cell line = assay: CellTiter-Blue cell viability assay, PEO4; type: cell-based; settings: Homo sapiens; PEO4 cells, 72 hours, growth/viability
Excerpt: as §1, §2

OVCAR10 OVCA cell line = assay: CellTiter-Blue cell viability assay, OVCAR10; type: cell-based; settings: Homo sapiens; OVCAR10 cells, 72 hours, growth/viability
Excerpt: as §1, §2

OVCAR8 OVCA cell line = assay: CellTiter-Blue cell viability assay, OVCAR8; type: cell-based; settings: Homo sapiens, OVCAR-8; OVCAR8 cells, 72 hours, growth/viability
Excerpt: as §1, §2

OVCAR3 OVCA cell line = assay: CellTiter-Blue cell viability assay, OVCAR3; type: cell-based; settings: Homo sapiens, OVCAR-3; OVCAR3 cells, 72 hours, growth/viability
Excerpt: as §1, §2

BG1 OVCA cell line = assay: CellTiter-Blue cell viability assay, BG1; type: cell-based; settings: Homo sapiens, BG-1; BG1 cells, 72 hours, growth/viability
Excerpt: as §1, §2

IMCC3 OVCA cell line = assay: CellTiter-Blue cell viability assay, IMCC3; type: cell-based; settings: Homo sapiens; IMCC3 cells, 72 hours, growth/viability
Excerpt: as §1, §2

SK-OV-4 OVCA cell line = assay: CellTiter-Blue cell viability assay, SK-OV-4; type: cell-based; settings: Homo sapiens; SK-OV-4 cells, 72 hours, growth/viability
Excerpt: as §1, §2

TyknuCisR OVCA cell line = assay: CellTiter-Blue cell viability assay, TyknuCisR; type: cell-based; settings: Homo sapiens; TyknuCisR cells, 72 hours, growth/viability
Excerpt: as §1, §2

CHI OVCA cell line = assay: CellTiter-Blue cell viability assay, CHI; type: cell-based; settings: Homo sapiens; CHI cells, 72 hours, growth/viability
Excerpt: as §1, §2

T8 OVCA cell line = assay: CellTiter-Blue cell viability assay, T8; type: cell-based; settings: Homo sapiens; T8 cells, 72 hours, growth/viability
Excerpt: as §1, §2

M41CSR OVCA cell line = assay: CellTiter-Blue cell viability assay, M41CSR; type: cell-based; settings: Homo sapiens; M41CSR cells, 72 hours, growth/viability
Excerpt: as §1, §2

OV90 OVCA cell line = assay: CellTiter-Blue cell viability assay, OV90; type: cell-based; settings: Homo sapiens, OV-90; OV90 cells, 72 hours, growth/viability
Excerpt: as §1, §2

A2008 OVCA cell line = assay: CellTiter-Blue cell viability assay, A2008; type: cell-based; settings: Homo sapiens; A2008 cells, 72 hours, growth/viability
Excerpt: as §1, §2

IGR-OV1 OVCA cell line = assay: CellTiter-Blue cell viability assay, IGR-OV1; type: cell-based; settings: Homo sapiens, IGROV-1; IGR-OV1 cells, 72 hours, growth/viability
Excerpt: as §1, §2

A2780S OVCA cell line = assay: CellTiter-Blue cell viability assay, A2780S; type: cell-based; settings: Homo sapiens; A2780S cells, 72 hours, growth/viability
Excerpt: as §1, §2

[1] = test system: patients with recurrent OVCA; settings: 800-1250 mg/m^2/week, Phase II and III studies; cited from earlier work
SK-OV-6 OVCA cell line = assay: CellTiter-Blue cell viability assay, SK-OV-6; type: cell-based; settings: Homo sapiens; SK-OV-6 cells, 72 hours, growth/viability
Excerpt: as §1, §2

HeyA8 OVCA cell line = assay: CellTiter-Blue cell viability assay, HeyA8; type: cell-based; settings: Homo sapiens, HEY A8; HeyA8 cells, 72 hours, growth/viability
Excerpt: as §1, §2

TOV-112D OVCA cell line = assay: CellTiter-Blue cell viability assay, TOV-112D; type: cell-based; settings: Homo sapiens, TOV112D; TOV-112D cells, 72 hours, growth/viability
Excerpt: as §1, §2

MCAS OVCA cell line = assay: CellTiter-Blue cell viability assay, MCAS; type: cell-based; settings: Homo sapiens; MCAS cells, 72 hours, growth/viability
Excerpt: as §1, §2

A2780CP OVCA cell line = assay: CellTiter-Blue cell viability assay, A2780CP; type: cell-based; settings: Homo sapiens, A2780C/P; A2780CP cells, 72 hours, growth/viability
Excerpt: as §1, §2

OVCA420 OVCA cell line = assay: CellTiter-Blue cell viability assay, OVCA420; type: cell-based; settings: Homo sapiens, OVCA 420; OVCA420 cells, 72 hours, growth/viability
Excerpt: as §1, §2

CHIcisR OVCA cell line = assay: CellTiter-Blue cell viability assay, CHIcisR; type: cell-based; settings: Homo sapiens; CHIcisR cells, 72 hours, growth/viability
Excerpt: as §1, §2

OVCAR4 OVCA cell line = assay: CellTiter-Blue cell viability assay, OVCAR4; type: cell-based; settings: Homo sapiens, OVCAR-4; OVCAR4 cells, 72 hours, growth/viability
Excerpt: as §1, §2

M41 OVCA cell line = assay: CellTiter-Blue cell viability assay, M41; type: cell-based; settings: Homo sapiens; M41 cells, 72 hours, growth/viability
Excerpt: as §1, §2

C13 OVCA cell line = assay: CellTiter-Blue cell viability assay, C13; type: cell-based; settings: Homo sapiens; C13 cells, 72 hours, growth/viability
Excerpt: as §1, §2

Tyknu OVCA cell line = assay: CellTiter-Blue cell viability assay, Tyknu; type: cell-based; settings: Homo sapiens; Tyknu cells, 72 hours, growth/viability
Excerpt: as §1, §2

TOV-21G OVCA cell line = assay: CellTiter-Blue cell viability assay, TOV-21G; type: cell-based; settings: Homo sapiens, TOV21G; TOV-21G cells, 72 hours, growth/viability
Excerpt: as §1, §2

OVCAR5 OVCA cell line = assay: CellTiter-Blue cell viability assay, OVCAR5; type: cell-based; settings: Homo sapiens, OVCAR-5; OVCAR5 cells, 72 hours, growth/viability
Excerpt: as §1, §2

CAOV2 OVCA cell line = assay: CellTiter-Blue cell viability assay, CAOV2; type: cell-based; settings: Homo sapiens; CAOV2 cells, 72 hours, growth/viability
Excerpt: as §1, §2

## Nc1ccn([C@@H]2O[C@H](CO)[C@@H](O)C2(F)F)c(=O)n1 [Gemcitabine, 2′,2′-difluorodeoxycytidine]
OV2008 OVCA cell line
  IC50: 0.384 µM
OVCA432 OVCA cell line
  IC50: 14.9 µM
FUOV1 OVCA cell line
  IC50: 59.4 µM
OVCA429 OVCA cell line
  IC50: 0.0222 µM
OVCAR2 OVCA cell line
  IC50: 0.022 µM
Dov13 OVCA cell line
  IC50: 0.006 µM
IMCC5 OVCA cell line
  IC50: 0.105 µM
Ovary1847 OVCA cell line
  IC50: 0.865 µM
SK-OV-3 OVCA cell line
  IC50: 16.1 µM
CAOV3 OVCA cell line
  IC50: 0.0022 µM
OVCA433 OVCA cell line
  IC50: 0.0099 µM
PEO1 OVCA cell line
  IC50: 0.135 µM
PEO4 OVCA cell line
  IC50: 0.536 µM
OVCAR10 OVCA cell line
  IC50: 0.672 µM
OVCAR8 OVCA cell line
  IC50: 0.273 µM
OVCAR3 OVCA cell line
  IC50: 6.2 µM
BG1 OVCA cell line
  IC50: 30.4 µM
IMCC3 OVCA cell line
  IC50: 0.943 µM
SK-OV-4 OVCA cell line
  IC50: 0.0033 µM
TyknuCisR OVCA cell line
  IC50: 0.0085 µM
CHI OVCA cell line
  IC50: 0.269 µM
T8 OVCA cell line
  IC50: 0.256 µM
M41CSR OVCA cell line
  IC50: 0.0374 µM
OV90 OVCA cell line
  IC50: 0.0189 µM
A2008 OVCA cell line
  IC50: 0.164 µM
IGR-OV1 OVCA cell line
  IC50: 0.531 µM
A2780S OVCA cell line
  IC50: 0.0518 µM
[1]
  response rates: up to 19%
SK-OV-6 OVCA cell line
  IC50: 3.5 µM
HeyA8 OVCA cell line
  IC50: 1.5 µM
TOV-112D OVCA cell line
  IC50: 44.5 µM
MCAS OVCA cell line
  IC50: 56.4 µM
A2780CP OVCA cell line
  IC50: 0.366 µM
OVCA420 OVCA cell line
  IC50: 12.7 µM
CHIcisR OVCA cell line
  IC50: 0.0237 µM
OVCAR4 OVCA cell line
  IC50: 0.655 µM
M41 OVCA cell line
  IC50: 0.0395 µM
C13 OVCA cell line
  IC50: 0.418 µM
Tyknu OVCA cell line
  IC50: 0.0046 µM
TOV-21G OVCA cell line
  IC50: 0.764 µM
OVCAR5 OVCA cell line
  IC50: 0.278 µM
CAOV2 OVCA cell line
  IC50: 3.9 µM
